Test results taken from ChEMBL document CHEMBL5236567, “Discovery of a selective c-MET inhibitor with a novel binding mode” (Bioorg Med Chem Lett, 2022).

Key:
[1] = biological target: T1, Hepatocyte growth factor receptor (Homo sapiens, UniProt P08581); assay: Binding affinity to his-tagged wild type c-MET (1050 to 1346 residues) (unknown origin) by surface plasmon resonance analysis
[2] = biological target: T2, Hepatocyte growth factor receptor (Homo sapiens, UniProt P08581, D1228V); assay: Binding affinity to his-tagged c-MET D1228V mutant (1050 to 1346 residues) (unknown origin) assessed as dissociation constant by surface plasmon resonance analysis
[3] = biological target: T1, Hepatocyte growth factor receptor; assay: Inhibition of his-tagged wild type c-MET (1050 to 1346 residues) (unknown origin) by ADP-glo assay
[4] = biological target: T2, Hepatocyte growth factor receptor; assay: Inhibition of his-tagged c-MET D1228V mutant (1050 to 1346 residues) (unknown origin) by ADP-glo assay
[5] = biological target: T1, Hepatocyte growth factor receptor; assay: Inhibition of his-tagged wild type c-MET (1050 to 1346 residues) (unknown origin) in human NCI-H1993 cells by HTRF analysis; assay type: cell-based
[6] = biological target: T2, Hepatocyte growth factor receptor; assay: Inhibition of his-tagged c-MET D1228V mutant (1050 to 1346 residues) (unknown origin) in human NCI-H1993 cells by HTRF analysis; assay type: cell-based
[7] = biological target: T1, Hepatocyte growth factor receptor; assay: Inhibition of wild type c-MET (unknown origin ) at 10 uM relative to control
[8] = biological target: TRAF2 and NCK-interacting protein kinase (Homo sapiens) (UniProt Q9UKE5); assay: Inhibition of TNIK (unknown origin) at 10 uM relative to control
Sequence of TRAF2 and NCK-interacting protein kinase (Homo sapiens) (Q9UKE5 whole entry, looked up): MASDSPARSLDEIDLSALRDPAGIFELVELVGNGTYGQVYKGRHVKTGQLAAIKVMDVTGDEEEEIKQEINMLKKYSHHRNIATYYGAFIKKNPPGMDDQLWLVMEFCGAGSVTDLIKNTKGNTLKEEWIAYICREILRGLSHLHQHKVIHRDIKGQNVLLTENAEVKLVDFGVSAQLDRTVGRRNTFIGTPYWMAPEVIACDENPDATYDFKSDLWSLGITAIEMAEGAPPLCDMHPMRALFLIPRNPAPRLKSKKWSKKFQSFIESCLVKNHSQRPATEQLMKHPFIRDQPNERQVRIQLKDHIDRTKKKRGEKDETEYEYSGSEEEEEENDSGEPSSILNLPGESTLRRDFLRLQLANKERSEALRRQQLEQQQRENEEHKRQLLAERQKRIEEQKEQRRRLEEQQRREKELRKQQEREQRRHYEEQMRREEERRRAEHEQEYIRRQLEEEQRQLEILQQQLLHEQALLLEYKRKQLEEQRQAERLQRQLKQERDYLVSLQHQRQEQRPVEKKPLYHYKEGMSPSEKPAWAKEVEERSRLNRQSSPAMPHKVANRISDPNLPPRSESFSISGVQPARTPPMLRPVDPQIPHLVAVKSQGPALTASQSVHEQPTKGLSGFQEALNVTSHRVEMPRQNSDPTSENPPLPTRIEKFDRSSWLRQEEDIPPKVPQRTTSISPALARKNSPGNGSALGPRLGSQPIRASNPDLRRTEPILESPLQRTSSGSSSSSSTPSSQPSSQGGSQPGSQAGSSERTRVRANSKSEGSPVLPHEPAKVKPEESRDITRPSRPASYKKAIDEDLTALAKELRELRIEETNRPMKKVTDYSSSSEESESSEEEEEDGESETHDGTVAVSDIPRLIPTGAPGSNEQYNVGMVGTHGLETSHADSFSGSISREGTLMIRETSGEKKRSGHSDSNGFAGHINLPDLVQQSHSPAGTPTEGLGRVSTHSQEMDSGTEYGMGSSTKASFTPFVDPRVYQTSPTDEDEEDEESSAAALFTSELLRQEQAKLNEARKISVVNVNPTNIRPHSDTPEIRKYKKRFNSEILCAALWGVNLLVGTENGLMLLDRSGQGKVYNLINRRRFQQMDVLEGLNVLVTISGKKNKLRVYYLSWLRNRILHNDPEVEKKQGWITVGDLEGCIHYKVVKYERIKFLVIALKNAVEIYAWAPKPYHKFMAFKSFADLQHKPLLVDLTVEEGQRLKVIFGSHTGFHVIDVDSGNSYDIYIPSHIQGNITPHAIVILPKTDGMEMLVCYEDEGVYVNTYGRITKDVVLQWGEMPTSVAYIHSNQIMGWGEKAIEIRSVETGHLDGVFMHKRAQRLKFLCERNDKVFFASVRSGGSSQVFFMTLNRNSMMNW

[9] = biological target: Calcium/calmodulin-dependent protein kinase type 1 (Homo sapiens) (UniProt Q14012); assay: Inhibition of CAMK1 (unknown origin) at 10 uM relative to control
Sequence of Calcium/calmodulin-dependent protein kinase type 1 (Homo sapiens) (Q14012 whole entry, looked up, the tested form may be a part): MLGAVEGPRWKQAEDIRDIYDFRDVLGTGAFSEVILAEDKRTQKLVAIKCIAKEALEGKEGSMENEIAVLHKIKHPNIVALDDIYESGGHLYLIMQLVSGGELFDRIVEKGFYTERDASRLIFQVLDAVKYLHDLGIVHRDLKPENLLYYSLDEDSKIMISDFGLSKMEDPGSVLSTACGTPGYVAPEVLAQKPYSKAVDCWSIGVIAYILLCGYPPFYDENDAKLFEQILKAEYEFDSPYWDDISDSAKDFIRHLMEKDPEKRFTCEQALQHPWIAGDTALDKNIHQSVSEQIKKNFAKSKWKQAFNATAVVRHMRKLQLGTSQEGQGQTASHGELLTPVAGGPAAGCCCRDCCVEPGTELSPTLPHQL

[10] = biological target: T1, Hepatocyte growth factor receptor; assay: Binding affinity to his-tagged c-MET (1050 to 1346 residues) (unknown origin) assessed as binding constant (Kon) by surface plasmon resonance analysis
[11] = biological target: T1, Hepatocyte growth factor receptor; assay: Binding affinity to his-tagged c-MET (1050 to 1346 residues) (unknown origin) assessed as binding constant (Koff) by surface plasmon resonance analysis

Row | Compound | Kd [1] [µM] | Kd [2] [µM] | IC50 [3] [µM] | IC50 [4] [µM] | IC50 ([5]; nci-h1993) | IC50 ([6]; nci-h1993) | IC50 ([5]; read-out: IC50) [µM] | IC50 ([6]; read-out: IC50) [µM] | inhibition [7] [%] | inhibition [8] [%] | inhibition [9] [%] | K [10] | koff [11] [s⁻¹]
1 | Cc1ccc(-c2ccc3c(C)n[nH]c3c2)c2c1[C@@H](N(C)C(=O)c1ncccc1C(F)F)CCC2 | 2.8 | 5.3 | 4.94 | 11 | Not Active | Not Active |  |  |  |  |  |  | 
2 | Cc1ccc(-c2ccc3c(C)n[nH]c3c2)c2c1[C@H](N(C)C(=O)c1ncccc1C(F)F)CCC2 | 7.2 | 0.65 | 0.9 | 0.09 |  |  | > 30 | 12 | > 70 | > 70 | > 70 |  | 
3 | Cc1ccc(-c2ccc3c(C)n[nH]c3c2)c2c1C(N(C)C(=O)c1ncccc1C(F)F)CCC2 (racemic) | > 20 | 1.4 |  |  |  |  |  |  |  |  |  | 3.7 10^3/M/s | 0.0053
